In US7427625B2, “Substituted thiatriazaacenaphthylene-6-carbonitrile kinase inhibitors” (Janssen Pharmaceutica, N.V., priority 2006, dated 2008):

What was measured:
EGFR = molecular target: T1, EGFR (Homo sapiens, UniProt P00533); test: EGFR Kinase Assay; assay type: biochemical; conditions: for inhibition at 2 µM: test concentration of 2 μM, read-out: EGFR percent inhibition
T1 construct: The intracellular portion of EGFR started at nucleotide 2189 (corresponding to amino acid 667) and ended at the termination codon; made in house; host or cells: Sf9 insect cells (baculovirus)
T1 sequence (P00533 669-1210 limits assumed): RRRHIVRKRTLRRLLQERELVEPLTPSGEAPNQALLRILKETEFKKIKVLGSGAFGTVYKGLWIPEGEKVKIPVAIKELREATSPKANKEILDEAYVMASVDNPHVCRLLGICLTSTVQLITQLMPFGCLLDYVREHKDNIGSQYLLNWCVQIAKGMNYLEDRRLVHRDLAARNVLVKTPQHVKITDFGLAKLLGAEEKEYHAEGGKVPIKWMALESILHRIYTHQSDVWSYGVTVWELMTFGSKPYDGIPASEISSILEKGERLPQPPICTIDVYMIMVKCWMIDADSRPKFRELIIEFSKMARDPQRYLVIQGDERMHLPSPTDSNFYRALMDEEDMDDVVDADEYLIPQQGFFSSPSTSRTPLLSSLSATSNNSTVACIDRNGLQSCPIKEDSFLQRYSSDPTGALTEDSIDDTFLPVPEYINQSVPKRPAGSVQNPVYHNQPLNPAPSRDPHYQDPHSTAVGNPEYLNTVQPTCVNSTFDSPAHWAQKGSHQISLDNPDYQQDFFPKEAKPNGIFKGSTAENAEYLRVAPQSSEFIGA
From the text: The EGFR kinase used was a fusion of Glutathione-S-Transferase (GST) and a PCR amplified intracellular portion of EGFR (NM_005228). The intracellular portion of EGFR started at nucleotide 2189 (corresponding to amino acid 667) and ended at the termination codon. The portion was PCR amplified with primers that added the lambda attB sequences to each end, recombined into an entry vector, then into a GST destination vector (as described in Gateway Technologies Manual by Invitrogen Corporation, Carlsbad, Calif.).
The destination vector was recombined in the DH10BAC strain of bacteria to produce a bacmid. The bacmid was transfected into Sf 9 cells and the supernatant containing the baculovirus was collected. The GSTEGFR protein was purified using large cultures of Sf 9 cells infected with stock virus. After an appropriate period of time, the cells were collected and lysed. The GSTEGFR was then purified from the lysate on Glutathione-Sepharose columns (as described by Amersham Biosciences, Buckinghamshire, United Kingdom).
The EGFR substrate was prepared by biotinylating polyGluTyr (128 mg) (Sigma, St. Louis, Mo.) in a 1×PBS buffer incubated together with a 12-fold molar excess of Sulfo-NHS-LC-Biotin on ice for at least 2 hrs. The free biotin was separated from the biotinylated polyGluTyr on a gel filtration column.
A mixture of a 10× kinase buffer (500 mM Tris at pH 8.0, 100 mM Magnesium Chloride and 1 mM Sodium Vanadate), DTT (1 mM final from 500 mM stock), ATP (5 μM final from 10 mM stock), biotinylated polyGluTyr (10 μg/μL stock), γ-^33P ATP (10 μCi/μL stock) and water was added to each well (90 μL/well) of a Streptavidin Flashplate (Perkin Elmer, Wellesley, Mass.).
Test compound in 100% DMSO (2 μL) was added to the appropriate wells. Diluted GSTEGFR (1:300 dilution in 50 mM Tris at pH 8.0 and 0.1% bovine serum albumin) (10 μL) was added to the wells to initiate the reactions.
The plates were incubated at 30° C. for 1 hr with shaking. The reacted contents were removed and the plates were sequentially washed three times with a 1×PBS stop buffer (300 μL without Magnesium and Calcium) and 100 mM EDTA. After the final wash, the same stop buffer (200 μL) was added to the wells. The plates were then sealed and read on the TopCount scintillation counter.
Test compounds were assayed in triplicate at 16 concentrations at half-log dilutions starting at 200 uM. A maximum and minimum signal for the assay was determined on each plate. The percent inhibition of a test compound was calculated according to the formula
For a series of test concentrations, the IC50 was derived by graphing percent inhibition against the log of the concentrations tested for a given compound. For those compounds without an IC50, the percent inhibition results are shown at a test concentration of 2 μM.

HER-2 = molecular target: T2, HER-2 (Homo sapiens, UniProt P04626); test: HER-2 Kinase Assay; assay type: biochemical; conditions: for inhibition at 1 µM: test concentration of 1 μM, read-out: HER-2 percent inhibition
T2 construct: the nucleotides encoding amino acids 679 to 1255 of HER-2; purchased Proqinase (Freiburg, Germany)
T2 sequence (P04626 679-1255): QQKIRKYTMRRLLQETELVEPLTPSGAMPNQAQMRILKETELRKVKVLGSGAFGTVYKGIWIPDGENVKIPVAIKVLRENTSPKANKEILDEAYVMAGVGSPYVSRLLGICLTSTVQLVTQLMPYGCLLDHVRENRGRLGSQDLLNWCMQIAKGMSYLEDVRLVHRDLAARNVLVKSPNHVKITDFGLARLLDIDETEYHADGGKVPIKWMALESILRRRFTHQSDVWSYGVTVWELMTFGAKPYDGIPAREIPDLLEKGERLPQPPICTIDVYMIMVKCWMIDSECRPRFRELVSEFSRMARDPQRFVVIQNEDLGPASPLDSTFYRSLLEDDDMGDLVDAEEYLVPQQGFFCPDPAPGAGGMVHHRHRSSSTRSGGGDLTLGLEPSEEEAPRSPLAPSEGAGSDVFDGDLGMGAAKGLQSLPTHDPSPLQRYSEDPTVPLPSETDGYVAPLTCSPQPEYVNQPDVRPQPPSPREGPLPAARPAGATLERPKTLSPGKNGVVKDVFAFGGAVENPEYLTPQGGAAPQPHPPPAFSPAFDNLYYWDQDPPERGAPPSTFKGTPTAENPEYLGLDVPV
Experimental: HER-2 kinase was purified at Proqinase (Freiburg, Germany) from a construct that consisted of a fusion of GST (Glutathione-S-Transferase), HIS6-Thrombin and the nucleotides encoding amino acids 679 to 1255 of HER-2.
A mixture of a 10× kinase reaction buffer (600 mM Hepes at pH 7.5, 30 mM Magnesium Chloride, 0.03 mM Sodium Vanadate and 500 μg/mL PEG 20,000), DTT (1.2 mM final from a 10 mM stock), ATP (1 μM from a 10 mM stock), biotinylated polyGluTyr (1.5 ng/μL final from stock of 1 μg/μL prepared by Upstate Biotechnologies, Lake Placid, N.Y.), Manganese Chloride (3 mM final from a 1 M stock), γ-^33P-ATP (10 μCi/μL stock) and water (70 μL/well) was added to each well of a Streptavidin Flashplate (Cat. #SMP103, NEN, Boston, Mass.).
Test compound stock (1 μL) was added to the appropriate wells. Diluted GSTHER2 kinase (6.7 ng/μL diluted into 50 mM Tris-HCl at pH 8.0 and 0.1% bovine serum albumin) (30 μL) was added (total volume of 200 ng/well) to initiate the reactions.
The reaction plates were incubated at 30° C. for 1 hr. The reaction was terminated by aspiring the reaction mixture from the plate wells and washing the wells three times with a 1×PBS stop buffer (300 μL) and 100 mM EDTA. After the final wash, the same stop buffer (200 μL) was again added to the wells. The plates were then sealed and read on the TopCount scintillation counter.
(§1) The IC50 was derived according to the procedure described in Example 2. For those compounds without an IC50, the percent inhibition results are shown at a test concentration of 1 μM.

VEGF-R2 = molecular target: T3, VEGF-R2 (Rattus norvegicus, UniProt O08775); test: VEGF-R2 Screening Assay; assay type: biochemical; conditions: for inhibition at 1 µM: test concentration of 1 μM, read-out: VEGF-R2 percent inhibition
T3 construct: polyhistidine (N)
T3 sequence (O08775 786-1343): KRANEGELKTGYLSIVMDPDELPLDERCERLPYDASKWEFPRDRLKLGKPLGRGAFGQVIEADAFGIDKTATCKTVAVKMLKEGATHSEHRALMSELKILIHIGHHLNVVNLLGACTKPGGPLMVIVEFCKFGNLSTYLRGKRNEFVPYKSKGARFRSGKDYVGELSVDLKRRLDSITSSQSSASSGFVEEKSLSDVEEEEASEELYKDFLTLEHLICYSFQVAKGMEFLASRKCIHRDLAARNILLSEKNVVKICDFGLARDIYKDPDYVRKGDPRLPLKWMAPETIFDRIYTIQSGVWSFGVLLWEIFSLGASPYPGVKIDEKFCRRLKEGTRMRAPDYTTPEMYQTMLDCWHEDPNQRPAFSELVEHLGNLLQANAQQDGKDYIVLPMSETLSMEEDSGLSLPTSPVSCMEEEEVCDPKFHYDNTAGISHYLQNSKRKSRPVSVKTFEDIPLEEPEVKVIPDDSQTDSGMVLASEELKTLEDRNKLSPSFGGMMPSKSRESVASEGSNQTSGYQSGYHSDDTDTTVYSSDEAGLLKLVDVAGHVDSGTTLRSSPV
Experimental: (§2) A kinase reaction mixture was prepared containing 50 mM Tris-HCl at pH 8, 10 mM, MgCl20.1 mM […], 1 mM DTT, 10 μM ATP, 0.025 μM biotinylated histone-H1 peptide substrate and 0.2 μCuries per well ^33P-γ-ATP (2000-3000 Ci/mmol). 70 μL of the kinase reaction mixture was dispensed into the well of a Streptavidin FlashPlate.
(§3) Test compound stock in 100% DMSO (1 μL) was added to the wells resulting in a final concentration of 1% DMSO in the reaction with a 100 μL final reaction volume. Each enzyme was diluted in 50 mM Tris-HCl pH=8.0, 0.1% BSA and 30 μL was added to each well to initiate the reaction. The reaction was incubated for one hour at 30° C. At the end of the 1 hr incubation, the reaction was terminated by aspirating the mixture from the plate and washing the wells twice with PBS containing 100 mM EDTA. The biotinylated peptide substrate became immobilized on the Flashplate^198 and the incorporation of ^33P-γ-ATP was measured by reading the plate on a scintillation counter. Inhibition of the enzymatic activity was measured by observing a reduced amount of ^33P-γ-ATP incorporated into the immobilized peptide.
The VEGF-R2 enzyme is a fusion protein containing a polyhistidine tag at the N terminus followed by amino acids 786 to 1343 of the rat VEGF-R2 kinase domain (Accession number U93306). The assay used 150 ng of the N-terminal biotinylated peptide biotin-KHKKLAEGSAYEEV-amide (VEGF-R2) per well.
as §1

Aurora-A = molecular target: T4, Aurora-A (Mus musculus, UniProt P97477); test: Aurora-A Screening Assay; assay type: biochemical, murine; conditions: for inhibition at 1 µM: test concentration of 1 μM, read-out: Aurora-A percent inhibition
T4 construct: followed by the full length protein encoding the murine Aurora-A; polyhistidine (N); made in house; host or cells: sf9 insect cells
T4 sequence (P97477 1-395): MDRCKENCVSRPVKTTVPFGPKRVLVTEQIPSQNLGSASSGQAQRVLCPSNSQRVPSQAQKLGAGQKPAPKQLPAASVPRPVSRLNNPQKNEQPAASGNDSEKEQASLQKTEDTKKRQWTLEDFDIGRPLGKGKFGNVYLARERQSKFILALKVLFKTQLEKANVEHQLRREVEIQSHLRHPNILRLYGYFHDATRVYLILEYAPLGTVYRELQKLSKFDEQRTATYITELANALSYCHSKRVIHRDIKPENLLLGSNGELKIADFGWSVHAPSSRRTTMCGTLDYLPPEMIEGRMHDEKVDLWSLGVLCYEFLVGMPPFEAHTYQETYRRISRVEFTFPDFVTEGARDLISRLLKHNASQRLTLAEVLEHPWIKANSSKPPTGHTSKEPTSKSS
Experimental: as §2, §3
Aurora-A is a fusion protein containing a polyhistidine tag at the N terminus followed by the full length protein encoding the murine Aurora-A (Accession number GB BC014711) expressed and purified from sf9 insect cells. The assay used 400 ng of the N-terminal biotinylated peptide biotin-GRTGRRNSI-amide (Aurora-A) per well.
as §1

Row | inhibition at 2 µM (EGFR) [%] | IC50 (HER-2) [nM] | IC50 (VEGF-R2) [nM] | IC50 (Aurora-A) [nM] | inhibition at 1 µM (HER-2) [%] | inhibition at 1 µM (VEGF-R2) [%] | inhibition at 1 µM (Aurora-A) [%] | IC50 (EGFR) [nM] | SMILES
1 | 2 | > 100000 | > 100000 | > 100000 |  |  |  |  | CCOC(=O)c1sc2nc(Cl)c(C#N)c3c2c1NC(=O)N3c1ccc(Oc2ccccc2)cc1 [Cpd 53, 7-chloro-6-cyano-4-oxo-5-(4-phenoxy-phenyl)-4,5-dihydro-3H-1-thia-3,5,8-triaza-acenaphthylene-2-carboxylic acid ethyl ester]
2 | 11 |  |  |  | 35 | 12 | 22 |  | N#Cc1cnc2sc(C(=O)Nc3ccc(NCCCN4CCOCC4)nc3)c3c2c1N(c1c(Cl)ccc2c1OCO2)C(=O)N3 [Cpd 30, 5-(5-chloro-benzo[1,3]dioxol-4-yl)-6-cyano-4-oxo-4,5-dihydro-3H-1-thia-3,5,8-triaza-acenaphthylene-2-carboxylic acid [6-(3-morpholin-4-yl-propylamino)-pyridin-3-yl]-amide]
3 | 24 |  |  |  | 12 | 14 | 7 |  | CC1COCC(C)N1Cc1ccc(NC(=O)c2sc3ncc(C#N)c4c3c2NC(=O)N4c2c(Cl)ccc3c2OCO3)cc1 (stereo not shown) [Cpd 24, 5-(5-chloro-benzo[1,3]dioxol-4-yl)-6-cyano-4-oxo-4,5-dihydro-3H-1-thia-3,5,8-triaza-acenaphthylene-2-carboxylic acid [4-(3,5-dimethyl-morpholin-4-ylmethyl)-phenyl]-amide]
4 | 35 |  |  |  | 22 | 1 | 13 |  | CN1CCCCC1COc1ccc(NC(=O)c2sc3ncc(C#N)c4c3c2NC(=O)N4c2c(Cl)ccc3c2OCO3)cc1 (stereo not shown) [Cpd 32, 5-(5-chloro-benzo[1,3]dioxol-4-yl)-6-cyano-4-oxo-4,5-dihydro-3H-1-thia-3,5,8-triaza-acenaphthylene-2-carboxylic acid [4-(1-methyl-piperidin-2-ylmethoxy)-phenyl]-amide]
5 | 26 |  |  |  | 0 | 9 | 15 |  | Cn1ccc(NC(=O)c2sc3ncc(C#N)c4c3c2NC(=O)N4c2c(Cl)ccc3c2OCO3)n1 [Cpd 39, 5-(5-chloro-benzo[1,3]dioxol-4-yl)-6-cyano-4-oxo-4,5-dihydro-3H-1-thia-3,5,8-triaza-acenaphthylene-2-carboxylic acid (1-methyl-1H-pyrazol-3-yl)-amide]
6 |  |  |  |  | 37 | 18 | 29 | 1220 | N#Cc1cnc2sc(C(=O)Nc3cc[nH]n3)c3c2c1N(c1c(Cl)ccc2c1OCO2)C(=O)N3 [Cpd 33, 5-(5-chloro-benzo[1,3]dioxol-4-yl)-6-cyano-4-oxo-4,5-dihydro-3H-1-thia-3,5,8-triaza-acenaphthylene-2-carboxylic acid (1H-pyrazol-3-yl)-amide]
7 | 9 |  |  |  | 35 | 15 | 25 |  | N#Cc1cnc2sc(C(=O)N3CCC(O)CC3)c3c2c1N(c1c(Cl)ccc2c1OCO2)C(=O)N3 [Cpd 28, 5-(5-chloro-benzo[1,3]dioxol-4-yl)-2-(4-hydroxy-piperidine-1-carbonyl)-4-oxo-4,5-dihydro-3H-1-thia-3,5,8-triaza-acenaphthylene-6-carbonitrile]
8 | 42 | > 1000 |  |  |  | 22 | 16 |  | N#Cc1cnc2sc(C(=O)Nc3ncccn3)c3c2c1N(c1c(Cl)ccc2c1OCO2)C(=O)N3 [Cpd 35, 5-(5-chloro-benzo[1,3]dioxol-4-yl)-6-cyano-4-oxo-4,5-dihydro-3H-1-thia-3,5,8-triaza-acenaphthylene-2-carboxylic acid pyrimidin-2-ylamide]
9 |  |  |  |  | 41 | 24 | 21 | 910 | N#Cc1cnc2sc(C(=O)Nc3ccc(CN4CCCC(CO)C4)cc3)c3c2c1N(c1c(Cl)ccc2c1OCO2)C(=O)N3 (stereo not shown) [Cpd 20, 5-(5-chloro-benzo[1,3]dioxol-4-yl)-6-cyano-4-oxo-4,5-dihydro-3H-1-thia-3,5,8-triaza-acenaphthylene-2-carboxylic acid [4-(3-hydroxymethyl-piperidin-1-ylmethyl)-phenyl]-amide]
10 |  | 1870 | > 100000 | > 100000 |  |  |  | 514 | N#Cc1cnc2sc(C(=O)Nc3ccc(CN4CCC(N)CC4)cc3)c3c2c1N(c1c(Cl)ccc2c1OCO2)C(=O)N3 [Cpd 47, 5-(5-chloro-benzo[1,3]dioxol-4-yl)-6-cyano-4-oxo-4,5-dihydro-3H-1-thia-3,5,8-triaza-acenaphthylene-2-carboxylic acid [4-(4-amino-piperidin-1-ylmethyl)-phenyl]-amide]
